The values below come from patent publication US20090270391A1, “THIENOPYRIDINE DERIVATIVE, OR QUINOLINE DERIVATIVE, OR QUINAZOLINE DERIVATIVE, HAVING c-MET AUTOPHOSPHORYLATION INHIBITING POTENCY” (Kirin Pharma Kabushiki Kaisha, priority 2005, published 2009).

Assay [1] concerns the target T1, c-Met (Homo sapiens, UniProt P08581). The assay can be described thus: c-Met autophosphorylation inhibitory activity (general statement).
Target sequence in this assay (P08581 25-1390): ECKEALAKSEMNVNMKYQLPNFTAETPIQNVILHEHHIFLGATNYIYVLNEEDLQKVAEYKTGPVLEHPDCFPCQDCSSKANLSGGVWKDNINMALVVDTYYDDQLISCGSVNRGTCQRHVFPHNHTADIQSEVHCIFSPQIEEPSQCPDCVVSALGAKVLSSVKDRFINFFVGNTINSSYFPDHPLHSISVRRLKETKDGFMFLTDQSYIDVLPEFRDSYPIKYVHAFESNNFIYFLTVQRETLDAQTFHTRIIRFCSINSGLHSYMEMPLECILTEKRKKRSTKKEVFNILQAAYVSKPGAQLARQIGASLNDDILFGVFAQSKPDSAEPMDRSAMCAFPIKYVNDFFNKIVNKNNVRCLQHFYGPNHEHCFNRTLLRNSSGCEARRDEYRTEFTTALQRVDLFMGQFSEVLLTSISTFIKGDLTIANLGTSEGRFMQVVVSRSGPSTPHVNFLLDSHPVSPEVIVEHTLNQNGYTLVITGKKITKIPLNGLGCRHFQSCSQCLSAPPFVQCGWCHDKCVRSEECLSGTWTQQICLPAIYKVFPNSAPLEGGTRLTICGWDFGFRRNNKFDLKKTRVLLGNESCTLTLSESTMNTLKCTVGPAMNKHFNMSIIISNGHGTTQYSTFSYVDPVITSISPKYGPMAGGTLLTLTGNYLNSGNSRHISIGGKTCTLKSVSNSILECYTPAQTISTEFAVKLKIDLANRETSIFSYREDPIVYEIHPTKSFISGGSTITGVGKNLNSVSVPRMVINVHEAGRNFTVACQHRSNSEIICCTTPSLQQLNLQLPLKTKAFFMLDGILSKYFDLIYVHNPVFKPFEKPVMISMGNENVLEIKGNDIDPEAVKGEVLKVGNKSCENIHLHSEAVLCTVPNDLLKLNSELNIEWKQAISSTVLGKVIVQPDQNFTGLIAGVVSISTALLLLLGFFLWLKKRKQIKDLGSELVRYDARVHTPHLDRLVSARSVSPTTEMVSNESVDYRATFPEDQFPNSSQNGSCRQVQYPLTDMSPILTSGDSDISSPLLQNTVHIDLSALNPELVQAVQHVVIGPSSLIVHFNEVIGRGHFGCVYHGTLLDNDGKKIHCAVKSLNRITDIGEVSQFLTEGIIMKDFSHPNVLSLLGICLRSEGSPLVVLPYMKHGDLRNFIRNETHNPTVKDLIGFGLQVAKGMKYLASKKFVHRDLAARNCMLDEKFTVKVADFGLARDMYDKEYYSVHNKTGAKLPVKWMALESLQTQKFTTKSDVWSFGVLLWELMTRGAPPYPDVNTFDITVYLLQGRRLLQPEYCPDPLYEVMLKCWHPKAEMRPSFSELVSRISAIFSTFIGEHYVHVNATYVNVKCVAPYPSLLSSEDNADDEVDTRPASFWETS
The target in assay [2] is KDR (Homo sapiens, UniProt P35968). The assay can be described thus: KDR autophosphorylation inhibitory activity (general statement).
KDR, sequence (P35968 20-1356): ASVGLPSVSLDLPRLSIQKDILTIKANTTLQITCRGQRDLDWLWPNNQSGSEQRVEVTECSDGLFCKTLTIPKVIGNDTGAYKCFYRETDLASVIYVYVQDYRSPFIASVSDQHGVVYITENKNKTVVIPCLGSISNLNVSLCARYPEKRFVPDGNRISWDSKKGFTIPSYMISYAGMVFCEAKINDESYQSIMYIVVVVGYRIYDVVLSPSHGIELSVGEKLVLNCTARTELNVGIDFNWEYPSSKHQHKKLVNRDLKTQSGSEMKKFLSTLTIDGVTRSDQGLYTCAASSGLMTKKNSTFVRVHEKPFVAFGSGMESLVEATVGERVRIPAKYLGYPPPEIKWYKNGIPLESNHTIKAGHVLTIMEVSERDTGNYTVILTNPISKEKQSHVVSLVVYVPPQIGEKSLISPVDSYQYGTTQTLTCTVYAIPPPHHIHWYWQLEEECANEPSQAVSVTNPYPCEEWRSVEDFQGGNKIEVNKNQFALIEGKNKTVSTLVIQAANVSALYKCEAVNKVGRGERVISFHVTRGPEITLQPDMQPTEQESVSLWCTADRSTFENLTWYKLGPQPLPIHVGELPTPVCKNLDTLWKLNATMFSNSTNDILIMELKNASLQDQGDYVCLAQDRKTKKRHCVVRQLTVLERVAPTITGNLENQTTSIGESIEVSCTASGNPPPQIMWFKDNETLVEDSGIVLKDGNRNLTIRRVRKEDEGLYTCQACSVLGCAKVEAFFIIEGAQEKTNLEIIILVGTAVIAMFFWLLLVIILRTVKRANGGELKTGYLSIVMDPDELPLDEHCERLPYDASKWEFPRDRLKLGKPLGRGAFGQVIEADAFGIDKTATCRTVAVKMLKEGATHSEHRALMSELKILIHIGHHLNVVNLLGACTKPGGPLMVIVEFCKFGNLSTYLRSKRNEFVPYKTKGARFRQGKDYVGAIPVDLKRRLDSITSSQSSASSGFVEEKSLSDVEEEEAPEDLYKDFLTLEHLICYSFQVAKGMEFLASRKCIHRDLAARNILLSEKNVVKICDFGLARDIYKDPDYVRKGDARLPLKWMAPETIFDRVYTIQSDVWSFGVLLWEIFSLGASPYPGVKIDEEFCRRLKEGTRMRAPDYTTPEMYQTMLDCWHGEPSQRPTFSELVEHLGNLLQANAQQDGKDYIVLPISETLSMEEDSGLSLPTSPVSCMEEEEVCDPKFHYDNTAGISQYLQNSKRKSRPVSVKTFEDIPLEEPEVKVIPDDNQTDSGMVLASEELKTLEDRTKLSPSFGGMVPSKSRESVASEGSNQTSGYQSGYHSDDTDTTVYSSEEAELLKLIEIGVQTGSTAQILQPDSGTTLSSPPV
Assay [3] concerns the target T1, c-Met. Briefly: Measurement (2) of inhibitory activity against c-Met autophosphorylation using ELISA method (MKN45 cells). The arrangement: endogenous in cells; host or cells: MKN45. The note with it: c-Met phosphorylation in MKN45 cells, no HGF. It is filed as cell-based. The procedure:
Human gastric cancer cell line MKN45 (available from Riken) was cultured in an RPMI 1640 medium containing 10% fetal calf serum (purchased from GIBCO BRL) within a 5% carbon dioxide incubator until 50 to 90% confluent. The harvested cells were inoculated into wells, containing an RPMI medium containing 0.1% fetal calf serum, in a 96-well flat-bottom plate in an amount of 2×10^4 per well, followed by cultivation at 37° C. overnight. The medium was then replaced by a fresh RPMI medium containing 0.1% fetal calf serum. The test compound dissolved in dimethyl sulfoxide was added to each well, and the cultivation was continued at 37° C. for additional one hr. The medium was removed, the cells were washed with phosphate buffered physiological saline (pH 7.4), and 50 μl of a solubilization buffer (20 mM HEPES (pH 7.4), 150 mM NaCl, 0.2%/0 Triton X-100, 100, 10% glycerol, 5 mM sodium orthovanadylate, 5 mM disodium ethylenediaminetetraacetate, and 2 mM Na4P2O7) was then added thereto. The mixture was shaken at 4° C. for 2 hr to prepare a cell extract.
Separately, phosphate buffered physiological saline (50 μl, pH 7.4) containing 5 μg/ml anti-phospho-tyrosine antibody (PY20; purchased from Transduction Laboratories) was added to a microplate for ELISA (Maxisorp; purchased from NUNC), followed by standing at 4° C. overnight to form a solid phase. After washing of the plate, 300 μl of a blocking solution was added, followed by standing at room temperature for 2 hr to perform blocking. After washing, the whole quantity of the cell extract was transferred, and the plate was then allowed to stand at 4° C. overnight. After washing, an anti-HGF receptor antibody (h-Met (C-12), purchased from Santa Cruz Biotechnology) was allowed to react at room temperature for one hr, and, after washing, a peroxidase-labeled anti-rabbit Ig antibody (purchased from Amersham) was allowed to react at room temperature for one hr. After washing, a chromophoric substrate for peroxidase (purchased from Sumitomo Bakelite Co., Ltd.) was added thereto to initiate a reaction. After a suitable level of color development, a reaction termination solution was added to stop the reaction, and the absorbance at 450 nm was measured with a microplate reader. The c-Met phosphorylation activity for each well was determined by presuming the absorbance without the addition of the test compound to be 100% c-Met phosphorylation activity and the absorbance with the addition of a largely excessive amount of positive control to be 0% c-Met phosphorylation activity. The concentration of the test compound was varied on several levels, the inhibition rate of c-Met-phosphorylation was determined for each case, and the concentration of the test compound necessary for inhibiting 50% of c-Met phosphorylation (IC50) was calculated.
Target sequence in this assay (P08581 25-1390): as the sequence (P08581 25-1390) above

Assay [4] has as its system Human gastric cancer cell line MKN 45. The assay can be described thus: Tumor growth inhibitory activity against human gastric cancer cell line MKN 45 in nude mice. It is filed as in vivo. The note with it: oral once a day. The procedure: Human gastric cancer cell line MKN 45 (available from Riken) was transplanted into nude mice. […] The test compound suspended in 0.5% methylcellulose was orally administered once a day for 9 days.
Only 0.5% methylcellulose was administered to the control group in the same manner as in the test groups. The tumor growth inhibition rate (TGIR) was calculated as follows: The tumor growth inhibition rate (TGIR)=(1−TX/CX)×100 wherein CX represents the volume of tumor at day X for the control group and TX represents the volume of tumor for test compound administration groups, when the tumor volume at the day of the start of the administration was presumed to be 1.

The target of assay [5] is T1, c-Met. The assay can be described thus: Measurement of human c-Met enzyme inhibitory activity (ELISA, Poly Glu:Tyr). Type of assay: biochemical. The note with it: human c-Met kinase domain (955 to 1368aa), ATP 10 μM. The arrangement: a part (955 to 1368aa) around human c-Met kinase domain; GST; made in house; host or cells: SF9 insect cells (baculovirus). The text has this: cDNA coding for a part (955 to 1368aa) around human c-Met kinase domain was integrated into a pFastBac vector (Invitrogen) with a GST tag inserted therein, followed by transformation into DH10Bac to give Bacmid DNA which was then introduced into SF9 cells (GIBCO). Infection with a virus liquid was repeated five times, and SF9 cells were then broken, followed by purification using a GSH column to give a c-Met kinase active protein.
Poly Glu: Tyr=4:1 (SIGMA) was coated onto a 96-well immunoplate (442404, NALGE NUNC International K.K.). Kinase buffer (50 mM HEPES (pH 7.5), 25 mM NaCl, 0.01 mM Na3VO4, 0.01% BSA), a test compound, and the kinase protein were added, and the mixture was incubated for 10 min. ATP (10 μM, SIGMA) was then added, and a reaction was allowed to proceed for 10 min. The plate was washed three times with PBST and was reacted with a primary antibody PY-20 (BD-610000, B.D. Bioscience) and a secondary antibody GAM (NA-9310V, Abersham) each at room temperature for one hr. The plate was washed with PBST, color development was then carried out with SUMILON (ML-1120T, Sumitomo Bakelite Co., Ltd.), and phosphorylated tyrosine was quantitatively determined by measuring the absorbance at 450 nm. IC50 was calculated based on a concentration difference curve for the test compound by presuming the absorbance of the wells without the addition of ATP to be 100% inhibition and the absorbance of the wells with the addition of the medium for the test compound and ATP to be 0% inhibition.
Target sequence in this assay (P08581 955-1368): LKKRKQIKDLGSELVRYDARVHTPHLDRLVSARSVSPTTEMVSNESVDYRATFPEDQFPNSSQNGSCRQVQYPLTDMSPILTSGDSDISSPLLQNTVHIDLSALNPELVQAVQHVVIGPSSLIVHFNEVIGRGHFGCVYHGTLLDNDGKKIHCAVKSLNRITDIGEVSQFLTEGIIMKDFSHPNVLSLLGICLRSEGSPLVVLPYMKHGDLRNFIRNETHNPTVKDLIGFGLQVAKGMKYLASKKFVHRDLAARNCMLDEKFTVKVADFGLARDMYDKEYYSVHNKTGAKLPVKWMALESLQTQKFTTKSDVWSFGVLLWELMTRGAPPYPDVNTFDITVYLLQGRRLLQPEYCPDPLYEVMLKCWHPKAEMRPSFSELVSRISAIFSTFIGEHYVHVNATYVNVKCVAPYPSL

pIC50: −log10 of the molar value.

Take `COc1cc(Oc2ccnc3cc(OCCCN4CCOCC4)c(OC)cc23)ccc1NC(=S)NC(=O)Cc1ccccc1` [Compound B, N-{2-methoxy-4-[6-methoxy-7-(3-morpholinopropoxy)-4-quinolyl]oxyphenyl}-N′-(2-phenylacetyl)thiourea]: the “c-Met autophosphorylation inhibitory activity” value in assay [1] is reported as “high”. In addition, the “KDR autophosphorylation inhibitory activity” value in assay [2] is reported as “low”.

`Cn1ccnc1-c1cc2nccc(Oc3ccc(NC(=S)NC(=O)Cc4ccc(F)cc4)cc3Cl)c2s1` [Example 1, N-(3-Chloro-4-{[2-(1-methyl-1H-2-imidazolyl)thieno[3,2-b]pyridin-7-yl]oxy}phenyl)-N-[2-(4-fluorophenyl)-acetyl]thiourea]: the pIC50 is 7.48 in assay [3] and 8.49 in assay [5]. The “TGIR (tumor growth inhibition rate)” value in assay [4] (9th day) was found to be 63.8%.

Regarding `COc1cc2nccc(Oc3ccc(NC(=O)NC(=O)Cn4ncc5ccccc54)cc3F)c2cc1OC` [Example 14, N-4-[(6,7-Dimethoxy-4-quinolyl)oxy]-3-fluorophenyl-N′-[2-(1H-1-indazolyl)acetyl]urea], the values for the pIC50 in assay [3] and in assay [5] were 7.65 and 7.90, respectively. Besides, the “TGIR (tumor growth inhibition rate)” value in assay [4] (10th day) was determined as 42.6%.

Take `COc1cc(Oc2ccnc3cc(OC)c(OC)cc23)ccc1NC(=S)NC(=O)Cn1ncc2ccccc21` [Example 15, N-4-[(6,7-Dimethoxy-4-quinolyl)oxy]-2-methoxyphenyl-N′-[2-(1 H-1-indazolyl)acetyl]thiourea]: the pIC50 in assay [3] was 7.88; in assay [5], 8.02.

Consider `COc1cc2nccc(Oc3ccc(NC(=O)NC(=O)Cn4ccc5ccccc54)cc3F)c2cc1OC` [Example 16, N-4-[(6,7-Dimethoxy-4-quinolyl)oxy]-3-fluorophenyl-N′-[2-(1H-1-indolyl)acetyl]urea], for which, in assay [3], the pIC50 was 7.44.
